Measured values as given in ChEMBL document CHEMBL3885861, “Open TG-GATES”.

Organism: Rattus norvegicus
Assay: Open TG-GATES - Regimen: Daily Repeat
Assay type: toxicity, organism-based, Sprague-Dawley
Design: regimen Daily Repeat, gender Male, age 6 weeks
Conditions: in vivo, po, route gavage; for gamma-GTP / ALP / ALT / AST / BUN / CRE / Ca / Cl / DBIL / GLC / IP / K / LDH / Na / PL / RALB / TBIL / TC / TG / TP: tissue Plasma; for APTT / Bas / Eos / Fbg / Ht / Lym / MCH / MCHC / MCV / Mono / Neu / PT / Plat / RBC / Ret / WBC: tissue Blood; for KIDNEY_L / KIDNEY_R / KIDNEY_TOTAL: tissue Kidney; for LIVER: tissue Liver
[1] = 30 mg/kg, 72 h, dose level Middle, time 3 day
[2] = 30 mg/kg, […], dose level Middle, time 7 day
[3] = 30 mg/kg, […], dose level Middle, time 14 day
[4] = 30 mg/kg, […], dose level Middle, time 28 day

Cc1cccc(Nc2cc(Cl)nc(SCC(=O)O)n2)c1C [PIRINIXIC ACID]
gamma-GTP (10 mg/kg, […], dose level Low, time 28 day): 1.2 IU/L | TERMINAL_BW [1]: 229.5 g | APTT [1]: 15.8 s | Bas [1]: 0% | Eos [1]: 0.8% | Fbg [1]: 199.8 mg/dL | Ht [1]: 39.5% | Lym [1]: 71.6% | MCH [1]: 21.7 pg | MCHC [1]: 34.3% | MCV [1]: 63.4 fL | Mono [1]: 3.2% | Neu [1]: 23.8% | PT [1]: 12.4 s | Plat [1]: 106.4 x10_4/uL | RBC [1]: 623.8 x10_4/ul | Ret [1]: 5.5% | WBC [1]: 85.4 x10_2/uL | KIDNEY_L [1]: 1 g | KIDNEY_R [1]: 1 g | KIDNEY_TOTAL [1]: 2 g | LIVER [1]: 15.1 g | ALP [1]: 1953.2 IU/L | ALT [1]: 77.6 IU/L | AST [1]: 112 IU/L | BUN [1]: 14 mg/dL | CRE [1]: 0.2 mg/dL | Ca [1]: 10.7 mg/dL | Cl [1]: 106.4 meq/L | DBIL [1]: 0.02 mg/dL | GLC [1]: 192.6 mg/dL | IP [1]: 7.1 mg/dL | K [1]: 4 meq/L | LDH [1]: 167 IU/L | Na [1]: 143.6 meq/L | PL [1]: 106.2 mg/dL | RALB [1]: 2.6 g/dL | TBIL [1]: 0.026 mg/dL | TC [1]: 51 mg/dL | TG [1]: 31.4 mg/dL | TP [1]: 5.2 g/dL | gamma-GTP [1]: 1 IU/L | TERMINAL_BW [2]: 270.6 g | TERMINAL_BW [3]: 309.3 g | TERMINAL_BW [4]: 373.2 g | APTT [2]: 18 s | Bas [2]: 0% | Eos [2]: 0.8% | Fbg [2]: 230.8 mg/dL | Ht [2]: 37.9% | Lym [2]: 76.6% | MCH [2]: 22.1 pg | MCHC [2]: 34% | MCV [2]: 64.9 fL | Mono [2]: 3.2% | Neu [2]: 19% | PT [2]: 12.7 s | Plat [2]: 115.8 x10_4/uL | RBC [2]: 585.4 x10_4/ul | Ret [2]: 5.5% | WBC [2]: 114.2 x10_2/uL | APTT [3]: 16.4 s | Bas [3]: 0% | Eos [3]: 1% | Fbg [3]: 214 mg/dL | Ht [3]: 38.2% | Lym [3]: 76.8% | MCH [3]: 21.1 pg | MCHC [3]: 34.8% | MCV [3]: 60.5 fL | Mono [3]: 3.6% | Neu [3]: 18.2% | PT [3]: 12.8 s | Plat [3]: 136.3 x10_4/uL | RBC [3]: 631.8 x10_4/ul | Ret [3]: 4.3% | WBC [3]: 121.9 x10_2/uL | APTT [4]: 15.2 s | Bas [4]: 0% | Eos [4]: 1% | Fbg [4]: 223.8 mg/dL | Ht [4]: 39.5% | Lym [4]: 78% | MCH [4]: 19.6 pg | MCHC [4]: 34.9% | MCV [4]: 56.2 fL | Mono [4]: 3% | Neu [4]: 17.6% | PT [4]: 12.4 s | RBC [4]: 703.4 x10_4/ul | Ret [4]: 3.3% | WBC [4]: 108.3 x10_2/uL | KIDNEY_L [2]: 1.2 g | KIDNEY_R [2]: 1.1 g | KIDNEY_TOTAL [2]: 2.3 g | KIDNEY_L [3]: 1.4 g | KIDNEY_R [3]: 1.3 g | KIDNEY_TOTAL [3]: 2.7 g | KIDNEY_L [4]: 1.5 g | KIDNEY_R [4]: 1.5 g | KIDNEY_TOTAL [4]: 3 g | LIVER [2]: 21.7 g | LIVER [3]: 25.2 g | LIVER [4]: 29.4 g | ALP [2]: 1797.4 IU/L | ALT [2]: 53 IU/L | AST [2]: 71.8 IU/L | BUN [2]: 19.4 mg/dL | CRE [2]: 0.2 mg/dL | Ca [2]: 11.2 mg/dL | Cl [2]: 103 meq/L | DBIL [2]: 0.014 mg/dL | GLC [2]: 191.8 mg/dL | IP [2]: 7 mg/dL | K [2]: 4.1 meq/L | LDH [2]: 180.2 IU/L | Na [2]: 142.2 meq/L | PL [2]: 139 mg/dL | RALB [2]: 2.9 g/dL | TBIL [2]: 0.032 mg/dL | TC [2]: 71.6 mg/dL | TG [2]: 46 mg/dL | TP [2]: 6.1 g/dL | gamma-GTP [2]: 1 IU/L | ALP [3]: 1895.2 IU/L | ALT [3]: 48.2 IU/L | AST [3]: 66.6 IU/L | BUN [3]: 19.2 mg/dL | CRE [3]: 0.2 mg/dL | Ca [3]: 10.5 mg/dL | Cl [3]: 102.6 meq/L | DBIL [3]: 0.016 mg/dL | GLC [3]: 194.6 mg/dL | IP [3]: 7.1 mg/dL | K [3]: 3.9 meq/L | LDH [3]: 114 IU/L | Na [3]: 141.8 meq/L | PL [3]: 144.4 mg/dL | RALB [3]: 2.9 g/dL | TBIL [3]: 0.034 mg/dL | TC [3]: 69.6 mg/dL | TG [3]: 51.6 mg/dL | TP [3]: 6.1 g/dL | gamma-GTP [3]: 1.4 IU/L | ALP [4]: 1970.8 IU/L | ALT [4]: 47.2 IU/L | AST [4]: 62.4 IU/L | BUN [4]: 18.2 mg/dL | CRE [4]: 0.2 mg/dL | Ca [4]: 10.7 mg/dL | Cl [4]: 102.8 meq/L | DBIL [4]: 0.012 mg/dL | GLC [4]: 189.2 mg/dL | IP [4]: 7.2 mg/dL | K [4]: 3.7 meq/L | LDH [4]: 111.4 IU/L | Na [4]: 141.6 meq/L | PL [4]: 149 mg/dL | RALB [4]: 3 g/dL | TBIL [4]: 0.05 mg/dL | TC [4]: 70.6 mg/dL | TG [4]: 55.4 mg/dL | TP [4]: 6.5 g/dL
